Reference: patent publication US11090319B2, “Therapeutic uses of pharmaceutical compositions comprising cyclic boronic acid ester derivatives” (Melinta Subsidiary Corp., priority 2010, dated 2021)

Columns and labels:
[1] = tested on: KP1008 Klebsiella pneumoniae KPC-2; assay: Checkerboard assay, ceftazidime potentiation; conditions: ceftazidime MIC 8-fold; KP1008 KPC-2 class A
[2] = tested on: EC1010 Escherichia coli CMY-6; assay: Checkerboard assay, ceftazidime potentiation; conditions: ceftazidime MIC 8-fold; EC1010 CMY-6 class C
[3] = tested on: ec308 Escherichia coli SHV-5; assay: Checkerboard assay, ceftazidime potentiation; conditions: ceftazidime MIC 8-fold; ec308 SHV-5 class A
[4] = tested on: ec304 Escherichia coli TEM-26; assay: Checkerboard assay, ceftazidime potentiation; conditions: ceftazidime MIC 8-fold; ec304 TEM-26 class A
[5] = tested on: ec306 Escherichia coli SHV-2; assay: Checkerboard assay, ceftazidime potentiation; conditions: ceftazidime MIC 8-fold; ec306 SHV-2 class A
[6] = tested on: KP1009 Klebsiella pneumoniae CTX-M-15; assay: Checkerboard assay, ceftazidime potentiation; conditions: ceftazidime MIC 8-fold; KP1009 CTX-M-15 class A
[7] = tested on: EC1011 Escherichia coli TEM-26; assay: Checkerboard assay, ceftazidime potentiation; conditions: ceftazidime MIC 8-fold; EC1011 TEM-26 class A
[8] = tested on: ECL1003 Enterobacter cloacae Hyper AmpC expression; assay: Checkerboard assay, ceftazidime potentiation; conditions: ceftazidime MIC 8-fold; ECL1003 Hyper AmpC class C
[9] = tested on: ec302 Escherichia coli TEM-10; assay: Checkerboard assay, ceftazidime potentiation; conditions: ceftazidime MIC 8-fold; ec302 TEM-10 class A
[10] = tested on: ec300 Escherichia coli TEM-3; assay: Checkerboard assay, ceftazidime potentiation; conditions: ceftazidime MIC 8-fold; ec300 TEM-3 class A
[11] = tested on: ec310 Escherichia coli ACT-1; assay: Checkerboard assay, ceftazidime potentiation; conditions: ceftazidime MIC 8-fold; ec310 ACT-1 class C
[12] = tested on: KP1004 Klebsiella pneumoniae KPC-2; assay: Checkerboard assay, ceftazidime potentiation; conditions: ceftazidime MIC 8-fold; KP1004 KPC-2 class A
[13] = tested on: CF1000 Citrobacter freundii Hyper AmpC expression; assay: Checkerboard assay, ceftazidime potentiation; conditions: ceftazidime MIC 8-fold; CF1000 Hyper AmpC class C
[14] = tested on: EC1004 Escherichia coli CMY-2; assay: Checkerboard assay, ceftazidime potentiation; conditions: ceftazidime MIC 8-fold; EC1004 CMY-2 class C
[15] = tested on: ec301 Escherichia coli TEM-6; assay: Checkerboard assay, ceftazidime potentiation; conditions: ceftazidime MIC 8-fold; ec301 TEM-6 class A
[16] = tested on: EC1014 Escherichia coli DHA-1; assay: Checkerboard assay, ceftazidime potentiation; conditions: ceftazidime MIC 8-fold; EC1014 DHA-1 class C
[17] = tested on: ec307 Escherichia coli SHV-4; assay: Checkerboard assay, ceftazidime potentiation; conditions: ceftazidime MIC 8-fold; ec307 SHV-4 class A
[18] = tested on: KP1012 Klebsiella pneumoniae SHV-18; assay: Checkerboard assay, ceftazidime potentiation; conditions: ceftazidime MIC 8-fold; KP1012 SHV-18 class A
[19] = tested on: ec303 Escherichia coli TEM-12; assay: Checkerboard assay, ceftazidime potentiation; conditions: ceftazidime MIC 8-fold; ec303 TEM-12 class A
[20] = tested on: KP1007 Klebsiella pneumoniae OXA-10, qnrB4; assay: Checkerboard assay, ceftazidime potentiation; conditions: ceftazidime MIC 8-fold; KP1007 OXA-10, qnrB4 class D
[21] = tested on: EC1007 Escherichia coli KPC-3; assay: Checkerboard assay, ceftazidime potentiation; conditions: ceftazidime MIC 8-fold; EC1007 KPC-3 class A
[22] = tested on: KP1010 Klebsiella pneumoniae SHV-12; assay: Checkerboard assay, ceftazidime potentiation; conditions: ceftazidime MIC 8-fold; KP1010 SHV-12 class A
[23] = tested on: EC1007 Escherichia coli KPC-3; assay: Checkerboard assay, biapenem potentiation; conditions: Biapenem MIC 8-fold; EC1007 KPC-3 class A
[24] = tested on: EC1008 Escherichia coli CTX-M-3; assay: Checkerboard assay, ceftazidime potentiation; conditions: ceftazidime MIC 8-fold; EC1008 CTX-M-3 class A
[25] = tested on: EC1012 Escherichia coli TEM-12; assay: Checkerboard assay, ceftazidime potentiation; conditions: ceftazidime MIC 8-fold; EC1012 TEM-12 class A
[26] = tested on: ECL1004 Enterobacter cloacae NMC-A; assay: Checkerboard assay, biapenem potentiation; conditions: Biapenem MIC 8-fold; ECL1004 NMC-A class A
[27] = tested on: KP1005 Klebsiella pneumoniae CTX-M-14; assay: Checkerboard assay, ceftazidime potentiation; conditions: ceftazidime MIC 8-fold; KP1005 CTX-M-14 class A
[28] = tested on: EC1016 Escherichia coli FOX-5; assay: Checkerboard assay, ceftazidime potentiation; conditions: ceftazidime MIC 8-fold; EC1016 FOX-5 class C
[29] = tested on: EC1006 Escherichia coli FOX-5; assay: Checkerboard assay, ceftazidime potentiation; conditions: ceftazidime MIC 8-fold; EC1006 FOX-5 class C
[30] = tested on: EC1009 Escherichia coli TEM-10; assay: Checkerboard assay, ceftazidime potentiation; conditions: ceftazidime MIC 8-fold; EC1009 TEM-10 class A
[31] = tested on: SM1000 Serratia marcescens SME-2; assay: Checkerboard assay, biapenem potentiation; conditions: Biapenem MIC 8-fold; SM1000 SME-2 class A
[32] = tested on: PAM2035; assay: Tigemonam potentiation assay (MPC@4), class C and D; type: cell-based, Pseudomonas aeruginosa
Protocol: (§1) Selected β-lactamase inhibitors were also tested for their ability to potentiate the monobactam tigemonam.

[33] = tested on: EC1010 CMY-6; assay: as above; type: cell-based, Escherichia coli; conditions: EC1010 CMY-6 class C
Protocol: as §1

[34] = tested on: ECL1002; assay: as above; type: cell-based, Enterobacter cloacae
Protocol: as §1

[35] = tested on: KP1007 OXA-10; type: cell-based, Klebsiella pneumoniae
Protocol: as §1

[36] = tested on: KPX1001 OXA-2; type: cell-based
Protocol: as §1

With `O=C(O)CC1CC[C@H](NC(=O)Cc2cccs2)B(O)O1` (stereo partly drawn) [Compound 1, 2-((3R)-2-hydroxy-3-(2-(thiophen-2-yl)acetamido)-1,2-oxaborinan-6-yl)acetic acid] the MPC8 [1] was “X (MPC8 of 2.5 μg/mL or less)”, the MPC8 [2] was “Y (MPC8 of greater than 2.5 μg/mL to 10 μg/mL)” and the MPC8 [3] was “Y (MPC8 of greater than 2.5 μg/mL to 10 μg/mL)”. For the same compound, the MPC8 [4] was “Z (MPC8 of greater than 10 μg/mL)”, the MPC8 [5] was “Y (MPC8 of greater than 2.5 μg/mL to 10 μg/mL)” and the MPC8 [6] was “Y (MPC8 of greater than 2.5 μg/mL to 10 μg/mL)”. For the same compound, the MPC8 [7] was “Z (MPC8 of greater than 10 μg/mL)”, the MPC8 [8] was “Z (MPC8 of greater than 10 μg/mL)” and the MPC8 [9] was “Z (MPC8 of greater than 10 μg/mL)”. The MPC8 [10] was “Y (MPC8 of greater than 2.5 μg/mL to 10 μg/mL)”, the MPC8 [11] was “X (MPC8 of 2.5 μg/mL or less)” and the MPC8 [12] was “X (MPC8 of 2.5 μg/mL or less)”. The MPC8 [13] was “Y (MPC8 of greater than 2.5 μg/mL to 10 μg/mL)”, the MPC8 [14] was “X (MPC8 of 2.5 μg/mL or less)” and the MPC8 [15] was “Z (MPC8 of greater than 10 μg/mL)”. For the same compound, the MPC8 [16] was “Z (MPC8 of greater than 10 μg/mL)”, the MPC8 [17] was “Y (MPC8 of greater than 2.5 μg/mL to 10 μg/mL)” and the MPC8 [18] was “Y (MPC8 of greater than 2.5 μg/mL to 10 μg/mL)”. For the same compound, the MPC8 [19] was “Y (MPC8 of greater than 2.5 μg/mL to 10 μg/mL)”, the MPC8 [20] was “Y (MPC8 of greater than 2.5 μg/mL to 10 μg/mL)” and the MPC8 [21] was “X (MPC8 of 2.5 μg/mL or less)”. For the same compound, the MPC8 [22] was “Y (MPC8 of greater than 2.5 μg/mL to 10 μg/mL)”, the MPC8 [23] was “X (MPC8 of less than 0.16 μg/mL)” and the MPC8 [24] was “X (MPC8 of 2.5 μg/mL or less)”. The MPC8 [25] was “Y (MPC8 of greater than 2.5 μg/mL to 10 μg/mL)”, the MPC8 [26] was “Y (MPC8 of 0.16 μg/mL to 1 μg/mL)” and the MPC8 [27] was “Z (MPC8 of greater than 10 μg/mL)”. For the same compound, the MPC8 [28] was “Z (MPC8 of greater than 10 μg/mL)”, the MPC8 [29] was “Y (MPC8 of greater than 2.5 μg/mL to 10 μg/mL)” and the MPC8 [30] was “Z (MPC8 of greater than 10 μg/mL)”. For the same compound, the MPC8 [31] was “Y (MPC8 of 0.16 μg/mL to 1 μg/mL)”.

In the case of `CC1(C)[C@H](NC(=O)/C(=N\OCC(=O)O)c2csc(N)n2)C(=O)N1OS(=O)(=O)O` [Tigemonam], the “Tigemonam MIC” value [32] is reported as 8 µg/mL, the “Tigemonam MIC” value [33] is reported as 16 µg/mL and the “Tigemonam MIC” value [34] is reported as 32 µg/mL. For the same compound, the “Tigemonam MIC” value [35] was 256 µg/mL and the “Tigemonam MIC” value [36] was 8 µg/mL.
